Tests used:
Test in all cases: Bliss excess, mean over the matrix (fraction); higher = more synergy
T47D (Breast Carcinoma) = system: T47D (Breast Carcinoma)
In short: (§1)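 Bliss excess equals the observed combination effect minus the expected value EA + EB − EA·EB, where EA and EB are the effects of each agent alone. Combination Emax is the second-highest inhibition within the matrix. Inhibition was scaled from CellTiter-Glo 2.0 luminescence, with 0 set by vehicle wells and 1 by blank wells, after 72 hours of two-drug dosing of cells plated in 1536-well plates.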

[1] = system: LCLC-103H (Non-Small Cell Lung Carcinoma)
In short: as §1

NB1 (Neuroblastoma) = system: NB1 (Neuroblastoma)
In short: as §1

NCI-H226 (Mesothelioma) = system: NCI-H226 (Mesothelioma)
In short: as §1

[2] = system: P32-ISH (Burkitt's Lymphoma)
In short: as §1

[3] = system: MONO-MAC-6 (Acute Myeloid Leukemia)
In short: as §1

[4] = system: BxPC-3 (Pancreatic Carcinoma)
In short: as §1

WM35 (Melanoma) = system: WM35 (Melanoma)
In short: as §1

[5] = system: NCI-H596 (Other Solid Carcinomas)
In short: as §1

[6] = system: HT-1080 (Other Solid Carcinomas)
In short: as §1

[7] = system: DBTRG-05MG (Glioblastoma)
In short: as §1

[8] = system: SCC-4 (Oral Cavity Carcinoma)
In short: as §1

[9] = system: SNU-407 (Colorectal Carcinoma)
In short: as §1

[10] = system: ZR-75-30 (Breast Carcinoma)
In short: as §1

[11] = system: COR-L88 (Small Cell Lung Carcinoma)
In short: as §1

[12] = system: PL4 (Pancreatic Carcinoma)
In short: as §1

NCI-H2373 (Mesothelioma) = system: NCI-H2373 (Mesothelioma)
In short: as §1

GAK (Melanoma) = system: GAK (Melanoma)
In short: as §1

[13] = system: NAMALWA (Burkitt's Lymphoma)
In short: as §1

IST-MEL1 (Melanoma) = system: IST-MEL1 (Melanoma)
In short: as §1

| Compound | Bliss excess (T47D (Breast Carcinoma)) | Bliss excess [1] | Bliss excess (NB1 (Neuroblastoma)) | Bliss excess (NCI-H226 (Mesothelioma)) | Bliss excess [2] | Bliss excess [3] | Bliss excess [4] | Bliss excess (WM35 (Melanoma)) | Bliss excess [5] | Bliss excess [6] | Bliss excess [7] | Bliss excess [8] | Bliss excess [9] | Bliss excess [10] | Bliss excess [11] | Bliss excess [12] | Bliss excess (NCI-H2373 (Mesothelioma)) | Bliss excess (GAK (Melanoma)) | Bliss excess [13] | Bliss excess (IST-MEL1 (Melanoma)) |
| --- | --- | --- | --- | --- | --- | --- | --- | --- | --- | --- | --- | --- | --- | --- | --- | --- | --- | --- | --- | --- |
| CN(CCO)CC[C@H](CSc1ccccc1)Nc1ccc(S(=O)(=O)NC(=O)c2ccc(N3CCC([C@@H](O)c4ccccc4-c4ccc(Cl)cc4)CC3)cc2)cc1S(=O)(=O)C(F)(F)F [AZD4320] + C[C@@H](Nc1cc(F)cc(F)c1)c1cc(C(=O)N(C)C)cc2c(=O)cc(N3CCOCC3)oc12 [AZD8186] (first compound max 1 µM, 7x7, partner max 3 µM) | -0.0242 | -0.0139 | -0.0033 | -0.015 | 0.0526 | 0.0342 | 0.0345 | 0.047 | -0.0892 | -0.0232 | 0.02 | -0.0437 | -0.0167 | -0.0251 | 0.008 | -0.0411 | -0.0561 | -0.0727 | 0.0041 | 0.0237 |
| CC1(C)CCC(CN2CCN(c3ccc(C(=O)NS(=O)(=O)c4ccc(NCC5CCOCC5)c([N+](=O)[O-])c4)c(Oc4cnc5[nH]ccc5c4)c3)CC2)=C(c2ccc(Cl)cc2)C1 [Venetoclax] + Cc1cc2ncnn2cc1Nc1ncc2c(n1)n(C1CCOCC1)c(=O)n2C [AZD7648] (first compound max 1 µM, 7x7, partner max 10 µM) | -0.0459 | -0.0416 | -0.0358 | -0.0552 | -0.0154 | -0.025 | -0.0374 | -0.0209 | -0.0119 | -0.0487 | -0.0224 | -0.0674 | 0.0174 | -0.0381 | -0.0121 | -0.0297 | -0.056 | -0.0209 | -0.0246 | -0.0486 |
| COc1nnc2ccc(N3CCC(c4ccc(OCCN5CCN(C)C(=O)[C@H]5C)cc4)CC3)nn12 [AZD5153] + C[C@@H]1COCCN1C2=NC(=NC(=C2)C3(CC3)[S@](=N)(=O)C)C4=C5C=CNC5=NC=C4 [AZD6738] (first compound max 1 µM, 7x7, partner max 10 µM) | 0.0796 | 0.0525 | 0.0095 | 0.0038 | -0.0039 | -0.031 | -0.0013 | 0.0621 | -0.0028 | -0.0255 | 0.0213 | -0.0283 | 0.003 | 0.019 | -0.0201 | -0.0425 | -0.0263 | -0.0005 | -0.0799 | 0.0206 |
| CN(CCO)CC[C@H](CSc1ccccc1)Nc1ccc(S(=O)(=O)NC(=O)c2ccc(N3CCC([C@@H](O)c4ccccc4-c4ccc(Cl)cc4)CC3)cc2)cc1S(=O)(=O)C(F)(F)F [AZD4320] + C1CN(CCC1(C(=O)N[C@@H](CCO)C2=CC=C(C=C2)Cl)N)C3=NC=NC4=C3C=CN4 [Capivasertib] (first compound max 1 µM, 7x7, partner max 3 µM) | -0.0554 | -0.0548 | -0.0031 | -0.0589 | 0.001 | -0.0438 | -0.0395 | -0.017 | -0.0509 | -0.0794 | -0.047 | -0.0454 | -0.0633 | -0.0914 | 0.0065 | -0.0712 | -0.0351 | -0.064 | 0.0419 | -0.0226 |
| CC1(C)CCC(CN2CCN(c3ccc(C(=O)NS(=O)(=O)c4ccc(NCC5CCOCC5)c([N+](=O)[O-])c4)c(Oc4cnc5[nH]ccc5c4)c3)CC2)=C(c2ccc(Cl)cc2)C1 [Venetoclax] + C1CN(CCC1(C(=O)N[C@@H](CCO)C2=CC=C(C=C2)Cl)N)C3=NC=NC4=C3C=CN4 [Capivasertib] (first compound max 1 µM, 7x7, partner max 3 µM) | -0.0113 | -0.0756 | -0.0596 | -0.0673 | -0.0094 | -0.0214 | -0.0171 | -0.0456 | -0.0211 | -0.0351 | -0.0522 | -0.0792 | -0.0204 | -0.0324 | -0.0181 | -0.0363 | -0.0774 | -0.0305 | -0.0126 | -0.0762 |
| CN(CCO)CC[C@H](CSc1ccccc1)Nc1ccc(S(=O)(=O)NC(=O)c2ccc(N3CCC([C@@H](O)c4ccccc4-c4ccc(Cl)cc4)CC3)cc2)cc1S(=O)(=O)C(F)(F)F [AZD4320] + CN(C)CCCOc1ccc(-c2ccc3ncc4c(c3c2)n(C2CCOCC2)c(=O)n4C)cn1 [AZD0156] (first compound max 1 µM, 7x7, partner max 1 µM) | -0.0056 | -0.0704 | -0.0202 | -0.0589 | 0.0018 | 0.0324 | -0.0239 | -0.0141 | -0.0184 | -0.0895 | -0.0497 | -0.0341 | -0.0555 | -0.038 | -0.0161 | 0.0463 | -0.0545 | -0.0381 | 0.0125 | -0.0151 |
| Cn1cnc2c(F)c(Nc3ccc(Br)cc3Cl)c(C(=O)NOCCO)cc21 [Selumetinib] + C[C@@H]1COCCN1C2=NC(=NC(=C2)C3(CC3)[S@](=N)(=O)C)C4=C5C=CNC5=NC=C4 [AZD6738] (first compound max 10 µM, 7x7, partner max 10 µM) | -0.0576 | -0.0399 | 0.0023 | -0.0364 | -0.0153 | -0.0052 | -0.0197 | 0.0172 | -0.0333 | 0.0553 | 0.0599 | -0.0352 | 0.1 | -0.0495 | -0.0124 | 0.0866 | -0.0019 | -0.0003 | -0.0083 | -0.0217 |
| C[C@@H](c1ccc2nccn2c1)n1nnc2ncc(-c3cnn(C)c3)nc21 [Savolitinib] + Cc1c2c(nn1C)CSCc1cc(n(C)n1)CSc1cc(c3ccccc3c1)OCCCc1c(C(=O)O)n(C)c3c-2c(Cl)ccc13 [AZD5991] (first compound max 1 µM, 7x7, partner max 1 µM) | -0.0426 | -0.0417 | -0.0355 | -0.04 | -0.0162 | 0.0346 | -0.0496 | -0.0503 | -0.0852 | -0.0475 | -0.0596 | -0.0295 | -0.0396 | -0.0388 | -0.0019 | -0.0492 | -0.0618 | 0.0201 | -0.05 | -0.0243 |
| COc1cccc2c1C(=O)c1c(O)c3c(c(O)c1C2=O)C[C@@](O)(C(=O)CO)C[C@@H]3O[C@H]1C[C@H](N)[C@H](O)[C@H](C)O1 [Doxorubicin] + Cc1cc2ncnn2cc1Nc1ncc2c(n1)n(C1CCOCC1)c(=O)n2C [AZD7648] (first compound max 1 µM, 7x7, partner max 10 µM) | -0.0004 | 0.0261 | 0.0581 | 0.0068 | 0.14 | 0.0935 | 0.0216 | 0.0285 | -0.006 | 0.108 | 0.0225 | 0.0176 | -0.0143 | 0.003 | -0.0228 | 0.0391 | 0.0433 | 0.0711 | 0.0765 | 0.0511 |
| CC1(C)CCC(CN2CCN(c3ccc(C(=O)NS(=O)(=O)c4ccc(NCC5CCOCC5)c([N+](=O)[O-])c4)c(Oc4cnc5[nH]ccc5c4)c3)CC2)=C(c2ccc(Cl)cc2)C1 [Venetoclax] + C=CCn1c(=O)c2cnc(Nc3ccc(N4CCN(C)CC4)cc3)nc2n1-c1cccc(C(C)(C)O)n1 [AZD1775] (first compound max 1 µM, partner max 1 µM) | -0.0814 | -0.0136 | -0.0466 | -0.0296 | -0.0118 | 0.0336 | 0.092 | -0.0447 | -0.0783 | -0.0359 | -0.0476 | 0.0032 | -0.0755 | -0.0286 | 0.0736 | -0.0751 | -0.0789 | 0.0074 | 0.0438 | 0.0462 |
| NC1(C(=O)N[C@@H](CCO)c2ccc(Cl)cc2)CCN(c2ncnc3[nH]ccc23)CC1 [Capivasertib] + Cn1cnc2c(F)c(Nc3ccc(Br)cc3Cl)c(C(=O)NOCCO)cc21 [Selumetinib] (first compound max 10 µM, 7x7, partner max 10 µM) | -0.0108 | -0.0267 | 0.0054 | -0.063 | 0.0288 | 0.0394 | -0.0091 | 0.0104 | 0.0182 | 0.0159 | -0.0148 | 0.042 | 0.026 | -0.0071 | 0.0084 | -0.0314 | -0.0381 | -0.0649 | -0.0231 | 0.0465 |
| Cc1c2c(nn1C)CSCc1cc(n(C)n1)CSc1cc(c3ccccc3c1)OCCCc1c(C(=O)O)n(C)c3c-2c(Cl)ccc13 [AZD5991] + C1CN(CCC1(C(=O)N[C@@H](CCO)C2=CC=C(C=C2)Cl)N)C3=NC=NC4=C3C=CN4 [Capivasertib] (first compound max 1 µM, 7x7, partner max 3 µM) | -0.0887 | -0.0025 | -0.0186 | -0.0473 | 0.0276 | 0.0378 | -0.0005 | -0.0183 | -0.0035 | -0.0594 | -0.0215 | 0.0358 | 0.0036 | -0.0119 | -0.0058 | 0.0199 | -0.0671 | -0.029 | 0.0008 | 0.0025 |

From the supplement of paper PMC11061612
